Publication PMC12490239, “Combining BET inhibition with SMAC mimetics restricts tumor growth and triggers immune surveillance in preclinical cancer models” (Cell Reports Medicine, 2025)

Tests used:
Test in all cases: cells
Parameters in all cases: CellTiter-Glo 2.0 luminescence proliferation/viability assay, single agents, human tumour cell line panel
[1] = system: C125PM; settings: 96 h; single agent; read-out: IC50 SMACm
Experimental: (§1) The effect of BETi, SMACm alone or in combination cell viability was determined using a 96-h CellTiter-Glo2.0 proliferation assay. Cells were seeded in assay plates and placed at 37°C with 5% CO2 for twenty-four hours before treatment. Compounds were added in triplicate in gradients of increasing concentrations, in case of SMACm ranging between 4.5 nM and 10 μM and in case of BETi between 1.4 nM and 3 μM. DMSO served as control. Cell viability was measured by luminescence analysis using luminescence read on Envision plate readers (PerkinElmer). An additional set of colorectal cancer cell lines was assayed with technical duplicates and experimental triplicates. Cell viability was measured by luminescence analysis using luminescence read on Tecan Plate reader. The effects of drug combinations were analyzed using the Bliss Independence Model.[34] Synergy score was calculated by the average of 3 highest and 3 lowest BLISS Gaps between predicted and measured POC (Percentage of Control) values. To investigate the synergistic interaction between BI 894999 (hereafter, BETi) and BI 891065 (hereafter, SMACm), we evaluated the in vitro anti-tumor effect of the single agents or the combination in a large panel of 151 cancer cell lines of different tissue origin: CRC, gastric cancer, non-small cell lung cancer (NSCLC), and pancreatic carcinoma (Figures 1C–1F). As a mono-agent, SMACm was able to inhibit cell proliferation only in a limited number of tested cell lines (4%, Table S2). Most of the cell lines responded to inhibition by BETi, with sensitivity ranging from 10 to 100 nM (Figure 1C). Bliss Gap analysis, performed to analyze the effect of the BETi+SMACm combination on tumor cell growth (Figures 1D–1F), unveiled potent synergistic activity across the cell models tested (Figure 1E), independent of tumor type (Figure 1F).  Figure 1 The combinatorial effect of BI 894999 and BI 891065 across a panel of human tumor cell lines (A) Selectivity and potency profiles of BI 891065. Top left, structure of BI 891065. Top right, IC50 values for BI 891065 inhibition of cIAP1, cIAP2, and XIAP. Bottom, physicochemical properties of […]. (B) WES (Simple Western System) analysis of cIAP1, cIAP2, and XIAP levels upon treatment of HT-29 cells with indicated concentrations of BI 891065 for 6 h (C) IC50 values determined in cell proliferation assays (n = 151) individually for BETi BI 894999 and SMACm BI 891065. Each point represents a cell line tested. (D) Example of proliferation assay for synergy analysis in LoVo cell line; shown is combination plate map matrix and the cell growth inhibition (CGI) at the indicated concentrations; CGI values < 100%: tumor cell growth, CGI 100%: tumor cell stasis, and CGI > 100%: tumor cell killing. (E) Synergy scores across the tested panel of cell lines obtained using Bliss synergy analysis. (F) Violin plots showing the synergy scores for BETi and SMACm combination across indications. N is the number of cell lines tested in each indication group.

[2] = system: C84; settings: 96 h; single agent; read-out: IC50 SMACm
Experimental: as §1

[3] = system: CCK81; settings: 96 h; single agent; read-out: IC50 SMACm
Experimental: as §1

[4] = system: COLO678; settings: Homo sapiens, COLO-678, 96 h; single agent; read-out: IC50 SMACm
Experimental: as §1

[5] = system: COR-L105; settings: Homo sapiens, COR-L105, 96 h; single agent; read-out: IC50 SMACm
Experimental: as §1

[6] = system: Calu-3; settings: Homo sapiens, Calu-3, 96 h; single agent; read-out: IC50 SMACm
Experimental: as §1

[7] = system: ChaGo-K-1; settings: Homo sapiens, ChaGo-K-1, 96 h; single agent; read-out: IC50 SMACm
Experimental: as §1

[8] = system: EBC-1; settings: Homo sapiens, EBC-1, 96 h; single agent; read-out: IC50 SMACm
Experimental: as §1

[9] = system: HCA7; settings: HCA-7, 96 h; single agent; read-out: IC50 SMACm
Experimental: as §1

[10] = system: KM12C; settings: Homo sapiens, KM12C, 96 h; single agent; read-out: IC50 SMACm
Experimental: as §1

[11] = system: KM12L4; settings: KM 12L4, 96 h; single agent; read-out: IC50 SMACm
Experimental: as §1

[12] = system: LK-2; settings: Homo sapiens, LK-2, 96 h; single agent; read-out: IC50 SMACm
Experimental: as §1

[13] = system: LS-513; settings: Homo sapiens, LS-513, 96 h; single agent; read-out: IC50 SMACm
Experimental: as §1

[14] = system: NCI-H2126; settings: Homo sapiens, NCI-H2126, 96 h; single agent; read-out: IC50 SMACm
Experimental: as §1

[15] = system: SNU503; settings: 96 h; single agent; read-out: IC50 SMACm
Experimental: as §1

Structure (SMILES): CN[C@@H](C)C(=O)Nc1ccc(-c2c(-c3cccnc3OC)nc3cc(C)ccn23)c(C#Cc2ccc3c(C)nccc3c2)n1 [SMACm, BI 891065]
- IC50 [1]: 1.26 µM
- IC50 [2]: 3.35 µM
- IC50 [3]: 7.34 µM
- IC50 [4]: 2.59 µM
- IC50 [5]: 4.47 µM
- IC50 [6]: 1.46 µM
- IC50 [7]: 5.42 µM
- IC50 [8]: 2.23 µM
- IC50 [9]: 2.83 µM
- IC50 [10]: 5.22 µM
- IC50 [11]: 4.04 µM
- IC50 [12]: 4.15 µM
- IC50 [13]: 5.77 µM
- IC50 [14]: 6.14 µM
- IC50 [15]: 5.23 µM
